Patent publication US6130324A, “Amphipathic oligonucleotides and polynucleotides having potent antiviral activity” (University of Utah Research Foundation, priority 1999, dated 2000)
Read-outs that look alike come from different tables or passages of the source. Each block holds one compound with its values, some of them ahead of it.

What was measured:
[1] = tested on: HCMV strain AD-169; assay: Anti-HCMV activity, AD-169 strain in MRC-5 cell line; format: cell-based, human cytomegalovirus; conditions: HCMV AD-169 in MRC-5 cell line; for EC50: Human betaherpesvirus 5, AD169, MRC5, read-out: ED50 (50% effective dose)
Procedure: (§1) Assays of anti-HCMV activity were conducted by Drs. R. Sidwell and J. Huffman at Utah State University with the AD-169 strain in the MRC-5 cell line as described in Huffman et al. (1994), Nucleosides and Nucleotides 33:607-613.

[2] = Cytotoxicity in the anti-HCMV assay (MRC-5 cell line); format: cell-based; conditions: human, mrc-5 cells
Procedure: as §1

[3] = tested on: HIV strain ROD; assay: Inhibition of cytopathic effect of HIV strain ROD in CEM-SS cells; format: cell-based, human immunodeficiency virus
Procedure: (§2) Assays for anti-HIV activity of poly(1-propargylinosineic) prepared according to the procedure of Examples 1-4 were conducted by Dr. Robert Buckheit, Jr. of the Southern Research Institute with strains of HIV-1 and HIV-2 in various cell lines and with cell free preparations of reverse transcriptase as previously described, Broom et al. (1995), J. Med. Chem. 38:3253-3257.

[4] = tested on: HIV strain SK1; assay: Inhibition of cytopathic effect of HIV strain SK1 in CEM-SS cells; format: cell-based, human immunodeficiency virus
Procedure: as §2

[5] = tested on: HIV strain IIIB; assay: Inhibition of cytopathic effect of HIV strain IIIB in CEM-SS cells; format: cell-based, human immunodeficiency virus; conditions: polynucleotide concentration based on average molecular weight of 100,000, read-out: EC50 against cytopathic effect, virus IIIB
Procedure: as §2

[6] = tested on: HIV strain RF; assay: Inhibition of cytopathic effect of HIV strain RF in CEM-SS cells; format: cell-based, human immunodeficiency virus
Procedure: as §2

[7] = tested on: MRC-5 cell line; assay: Cytotoxicity in the anti-HCMV assay (MRC-5 cell line); format: cell-based; conditions: MRC-5 cell line
Procedure: as §1

[8] = tested on: reverse transcriptase (RT); assay: Inhibition of reverse transcriptase in a cell free supernate; format: biochemical, human immunodeficiency virus; conditions: concentrations based on average molecular weight of 100,000
Procedure: as §2

[9] = polynucleotide concentration based on average molecular weight of 100,000 daltons

Compound: Nc1nc(O)c2ncn(COC(CO)CO)c2n1 [Ganciclovir, ganciclovir]
TI = CD50 / ED50 [1]: > 417
EC50 [1, 9]: 9400 nM
EC50 [1]: 2.4 µg/mL
CC50 [2]: > 1000 µg/mL

EC50 ([3]; Human immunodeficiency virus 1, polynucleotide concentration based on average molecular weight of 100,000, read-out: EC50 against cytopathic effect, virus ROD): 62.1 nM
EC50 ([4]; Human immunodeficiency virus 1, polynucleotide concentration based on average molecular weight of 100,000, read-out: EC50 against cytopathic effect, virus SK1): 25.4 nM
EC50 ([5]; Human immunodeficiency virus 1, IIIB): 69.3 nM
EC50 ([6]; Human immunodeficiency virus 1, polynucleotide concentration based on average molecular weight of 100,000, read-out: EC50 against cytopathic effect, virus RF): 39 nM
Compound: Nc1ccn([C@H]2CC[C@@H](CO)O2)c(=O)n1 [ddC, reference compound]

Compound: poly(1-propargylinosinic acid)
EC50 ([3]; polynucleotide concentration based on average molecular weight of 100,000, read-out: EC50 against cytopathic effect, virus ROD): 57.9 nM
ED50 (50% effective dose) [1]: 1.9 µg/mL
ED50 (50% effective dose), molar [1, 9]: 19 nM
CD50 (50% cytotoxic dose) [7]: 316 µg/mL
CD50 (50% cytotoxic dose), molar ([7]; concentration based on average molecular weight of 100,000 daltons): 3.16 µM
EC50 ([4]; polynucleotide concentration based on average molecular weight of 100,000, read-out: EC50 against cytopathic effect, virus SK1): 44.4 nM
EC50 [5]: 263 nM
EC50 [8]: 223 nM
EC50 ([6]; Table 2, RF strain, concentrations based on average molecular weight of 100,000, read-out: CEM-SS (RF), EC50): 131 nM
EC50 ([6]; polynucleotide concentration based on average molecular weight of 100,000, read-out: EC50 against cytopathic effect, virus RF): 131 nM
